Tests used:
[1] = system: APP/PS/Tau transgenic mice; assay: Intestinal length in AD-induced animal model; type: in vivo; details: 1 mg/kg intraperitoneally once every 3 days for 2 weeks
Experimental: In neurodegenerative diseases (AD and PD), the length of the intestine tends to decrease as the disease progresses, so we looked for changes in intestinal length in an AD-induced animal model.
APP/PS/Tau transgenic mice were used as an AD-induced animal model. The compound of formula (1a-1) was administered intraperitoneally once every 3 days at a concentration of 1 mg/kg to 12-week-old transgenic mice for 2 weeks, and the changes in intestinal length of the mice were measured after 1 and 4 weeks.

[2] = system: C57BL/6 mice; assay: Acute respiratory distress syndrome induced by CLP: lung histology, lung injury score, wet-to-dry weight ratio; type: in vivo; details: treated at 6 and 16 hours after CLP, lungs harvested at 18 hours
Experimental: CLP induces pulmonary edema due to increased inflammation and disruption of the vascular barrier, resulting in acute respiratory distress syndrome (ARDS). To determine the effect on ARDS, the compound of formula (1a-1) was treated at 6 and 16 hours after CLP treatment in the same manner as in Experimental Example 7 above, the lungs of mice were harvested at 18 hours for histological analysis, and the wet-to-dry weight ratio of the lungs was obtained. For comparison, mice without CLP treatment served as a control group.
For histologic analysis, the harvested lungs were fixed in 10% paraformaldehyde, infiltrated with paraffin, sectioned into 5 µm-thick tissues, and then de-paraffinized with xylene. Sectioned tissues were mounted on slides, stained with H&E, and observed under an optical microscope. In addition, the lung tissue damage was evaluated by histological score to obtain the lung injury score (LIS) for each group.
To calculate the wet-to-dry weight ratio, lung organs were harvested 18 hours after CLP treatment, and the wet weight was measured immediately after harvesting, and the dry weight was measured after drying in an oven at 60°C for 48 hours to calculate the wet-to-dry weight ratio. The wet-to-dry weight ratio is used as an indicator of organ edema formation.

[3] = system: C57BL/6 mice; assay: In vivo permeability of mouse organs after CLP, Evans blue dye; details: treated at 6 and 16 hours after CLP, Evans blue dye at 18 hours
Experimental: Permeability was measured by an in vitro method using cell culture and in vivo method using Evans blue dye. To increase permeability, LPS was used in the in vitro method and CLP treatment was used in the in vivo method.
To measure permeability by an in vivo method, the compound of formula (1a-1) was treated at 6 and 16 hours after CLP treatment in the same manner as in Experimental Example 7 above, and 200 µl of a 0.5% Evans blue dye (EBD) solution was administered intravenously at 18 hours, circulated for 1 hour, and organs were harvested to visually confirm the presence of dye. The organs were then homogenized in a homogenizer to extract the dye at 55 °C for 48 hours, and permeability was determined by measuring absorbance at 620 nm.

SMILES: CCCCCCCCCCCCCC[C@H]1OP(=O)(O)O[C@H]1[C@@H](N)CO.Cl [formula (1a-1), (4S,5R)-4-((S)-1-amino-2-hydroxyethyl)-2-hydroxy-5-tetradecyl-1,3,2-dioxaphosphoran-2-oxide hydrochloride]
- length of the intestine at 4 weeks (6W) compared to 1 week (3W) after administration [1]: longer
- intestinal length ([1]; compared to untreated AD-induced control mice): increased
- lung injury score [2]: almost restores the lung injury score to normal
- lung tissue (optical microscope, H&E) [2]: almost restored to normal
- wet-to-dry weight ratio of the lung [2]: restores the wet-to-dry weight ratio of the lung to normal
- amount of EBD in each organ [3]: returns to normal
